Measurements from US20110189161A1, “NUTRIGENOMICS METHODS AND COMPOSITIONS” (priority 2008, published 2011).
Read-outs that look alike come from different tables or passages of the source. Bridge positions count the residues as written; N and C are the ends. Square brackets hold non-standard residues; d marks the D form. Peptide text beside a SMILES is read from it. * marks the point of attachment. Ileψ(thiazoline)Cys = CC[C@H](C)[C@H](N)C1=N[C@H](C(=O)*)CS1; dOrn = NCCC[C@@H](N)C(=O)O

Key:
[1] = test system: brain dopamine and serotonin flux; conditions: intravenously, cited from earlier work
[2] = test system: patients receiving opiates for chronic non-malignant pain; conditions: concurrent treatment, author's clinical experience; cited from earlier work
mice [3] = conditions: cited from earlier work
enkephalinase = conditions: cited from earlier work; for CSF EKA / plasma EKA: human sufferers
[4] = test system: SH-SY5Y human neuroblastoma cells; conditions: cited from earlier work
rat skin = conditions: applied to rat skin; cited from earlier work
Over-Eating [5] = conditions: after six months, p < 0.001 between groups; cited from earlier work
Over-Eating [6] = conditions: 400 mcg, cited from earlier work
Over-Eating [7] = conditions: cited from earlier work
obese women = conditions: cited from earlier work
[8] = test system: obese subjects genotyped for DRD2; experiment: Chromium picolinate body composition as a function of DRD2 genotype; type: in vivo, human; conditions: subjects possessing a DRD2 A1 allele
Protocol: A Case Study: Chromium and Dopamine Genes. The inventors embarked on a study with chromium picolinate to test out the principles of nutrigenomics. In this study they genotyped obese subjects for the dopamine D2 receptors gene (DRD2). The subjects were assessed for scale weight and for percent body fat. The subjects were divided into matched placebo and chromium picolinate (CrP) groups. […] Moreover, the inventors propose for the first time that mixed effects now observed with CrP administration in terms of body composition, may be resolved by typing the patient via DRD2 genotyping prior to treatment with chromium salts.

[9] = with soya-lecithin, n-octanol-phosphate buffer; cited from earlier work
paw edema by carrageenin = conditions: topical 1% ointment, rats; cited from earlier work
[10] = oral oil-based paste, free access to food, three of six animals; cited from earlier work
[11] = rats; cited from earlier work
[12] = test system: release of serotonin in the lateral hypothalamus; conditions: systemic administration, long lasting and dose dependent; cited from earlier work
[13] = test system: rat caudate nucleus synaptosomal preparation; conditions: cited from earlier work
rats [14] = conditions: naloxone 0.1 mg/kg; species not stated; cited from earlier work
[15] = test system: nucleus accumbens enkephalins; conditions: administered into the nucleus accumbens; cited from earlier work
patients with CRPS1 = conditions: 3 of 5 patients; unchanged in the other 2; cited from earlier work
rats [16] = conditions: injections in rats; cited from earlier work
[17] = in vivo; cited from earlier work
cats = conditions: peptide 0.35 mg/kg and D-phenylalanine 10 mg/kg; cited from earlier work
rats [18] = conditions: morphine 5 mg/kg, D-phenylalanine 100 mg/kg; similar degree; cited from earlier work
[19] = 250 mg/kg, reversed by naloxone; cited from earlier work
mice [20] = experiment: Alcohol preference in mice (acceptance and 14 day preference test); type: in vivo; conditions: d-phenylalanine 500 mg/kg/day 18 days, hydrocinnamic acid 25 micrograms icv
CYP2D6 = target: T1, CYP2D6 (Homo sapiens, UniProt P10635); conditions: extensive but not poor metabolizers of debrisoquine/sparteine; cited from earlier work
T1 construct: host or cells: patients on methadone (in vivo)

[21] = test system: intracranial self-stimulation; conditions: nucleus accumbens microinjections; cited from earlier work
methadone patients = experiment: Compliance with Trexan after rapid detoxification of methadone patients; type: in vivo, human; conditions: P<0.0001
From the text: It may also be interesting too further test this hypothesis with the sublingual combination of the partial opiate mu receptor agonist buprenorphrine.

[22] = exercise training combined with CrP supplementation

T1 sequence (P10635 whole entry): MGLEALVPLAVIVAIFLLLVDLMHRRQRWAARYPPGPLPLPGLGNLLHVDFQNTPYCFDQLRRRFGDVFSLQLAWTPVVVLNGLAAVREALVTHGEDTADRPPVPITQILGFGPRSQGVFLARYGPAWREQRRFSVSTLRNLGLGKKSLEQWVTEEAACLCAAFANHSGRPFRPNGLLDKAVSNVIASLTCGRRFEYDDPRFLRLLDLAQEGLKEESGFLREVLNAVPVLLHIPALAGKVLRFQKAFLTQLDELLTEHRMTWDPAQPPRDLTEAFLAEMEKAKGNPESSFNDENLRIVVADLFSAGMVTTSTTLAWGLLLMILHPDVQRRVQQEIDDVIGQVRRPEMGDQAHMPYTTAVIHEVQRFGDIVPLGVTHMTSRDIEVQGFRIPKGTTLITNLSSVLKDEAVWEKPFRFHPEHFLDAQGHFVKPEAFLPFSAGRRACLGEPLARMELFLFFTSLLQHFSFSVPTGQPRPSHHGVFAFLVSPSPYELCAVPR

## CC(C)CC(N(C)C)C1(c2ccc(Cl)cc2)CCC1 (centres unmarked) [sibutramine]
[1]; higher doses
  serotonin and dopamine concentrations in the striatal and hypothalamic brain regions: increased
[1]; low doses
  serotonin and dopamine concentrations in dialysates: no effect

## NC(Cc1ccccc1)C(=O)O (racemic) [DL-phenylalanine (DLPA), DL-phenylalanine]
[2]
  pain relief in patients receiving opiates: potentiate

## COc1ccc(C[C@H](N)C(=O)N[C@H]2[C@@H](O)[C@H](n3cnc4c(N(C)C)ncnc43)O[C@@H]2CO)cc1 [puromycin]
Mice [3]
  analgesia: long-lasting, naloxone-reversible analgesia

## C[C@H](CS)C(=O)N1CCC[C@H]1C(=O)O [captopril]
enkephalinase
  CSF EKA: decreased

## OC[C@H]1O[C@@H](OCCc2ccc(O)cc2)[C@H](O)[C@@H](O)[C@@H]1O [Salidroside]
[4]; SH-SY5Y cells
  H2O2-induced loss of mitochondrial membrane potential and elevation of intracellular calcium level: dose-dependently restored
[4]
  antioxidant property: potent

## CC(C)[C@@H]1CC[C@@H](C)C[C@H]1O [l-menthol]
Rat skin
  Plasma concentrations of KPF with addition of the enhancer to gel ointment: no significant enhancing effect

## Chromium Picolinate
Over-Eating [5]
  lean body mass: an increase in
Over-Eating [6]; 90 days
  weight (p < 0.001) and body fat (p < 0.004) lost compared with placebo: significantly more
Over-Eating [6]; p < 0.001
  reduction in body fat: greater reduction
Over-Eating [6]; p < 0.004
  body composition: improve body
Over-Eating [7]; 00 mcg or 400 mcg, two double-blind placebo controlled studies
  body composition, body fat, nonfat mass: body composition improvement, loss of body fat, gain in nonfat mass
Over-Eating [7]; 200 and 400 mcg, 72 days
  changes in Body Mass composition indicies compared with placebo: about significant
Obese women; CrP supplementation alone, 63 days
  weight change: gain, while
Obese women; [22]
  insulin response to an oral glucose load: lowered
  weight change: loss
[8]
  any parameter of weight and body fat change: no significance

## CC(C(=O)O)c1cccc(C(=O)c2ccccc2)c1 (racemic) [Ketoprofen]
[9]
  partition into n-octanol: improves
Paw edema by carrageenin
  paw edema by carrageenin: markedly inhibited
[10]
  concentrations in plasma: no detectable concentrations

## CC1CCCC(C)C1=O (centres unmarked) [2,6-dimethyl]
[11]
  percutaneous absorption of ketoprofen and indomethacin from gel ointments: significantly lower

## N[C@@H](Cc1c[nH]c2ccc(O)cc12)C(=O)O [5-HTP, 5-hydroxy-1-tryptophan]
[12]
  5-HT in dialysates: immediate increase

## CC(N)Cc1ccccc1 (centres unmarked) [Amphetamine]
[13]
  release of dopamine formed from 14C-phenylalanine: increased

## C=CCN1CC[C@]23c4c5ccc(O)c4O[C@H]2C(=O)CC[C@@]3(O)[C@H]1C5 [Naloxone]
Rats [14]
  analgetic effect of peptide IKB-901: prevents
[15]
  antinociception induced by intra-periaqueductal gray injection of morphine: attenuated

## O=[N+]([O-])O[C@H]1CO[C@H]2[C@@H]1OC[C@H]2O[N+](=O)[O-] [ISDN, isosorbide dinitrate]
Patients with CRPS1
  Visual Analog Scale pain: declined

## N[C@H](Cc1ccccc1)C(=O)O [D-phenylalanine]
Mice [3]
  analgesia: long-lasting, naloxone-reversible analgesia
Rats [16]
  CWS analgesia and morphine analgesia: decrease CWS analgesia while increasing morphine analgesia
[15]
  antinociception induced by intra-periaqueductal gray injection of morphine: potentiated
enkephalinase
  plasma EKA: decreased
[17]
  analgesia: naloxone reversible analgesia
cats
  analgesia on coadministration with peptide IKB-901: enhances analgesia
Rats [18]
  pain reaction thresholds: increase
[19]
  analgesia: elicits analgesia
Mice [20]
  alcohol preference: significantly reduced

## CN1CC[C@]23c4c5ccc(O)c4O[C@H]2[C@@H](O)C=C[C@H]3[C@H]1C5 [morphine]
Rats [18]
  pain reaction thresholds: increase

## CN1[C@@H]2CC[C@H]1C[C@@H](OC(c1ccccc1)c1ccccc1)C2 [Cogentin]
[13]
  release of dopamine formed from 14C-phenylalanine: increased

## CC(C)(C)C1CCCCC1=O (centres unmarked) [2-tert-butylcyclohexanone]
[11]
  percutaneous absorption of ketoprofen and indomethacin from gel ointments: markedly enhanced

## CC12CCC(CC1)C(C)(C)O2 [1,8-cineole]
Rat skin
  Plasma concentrations of KPF with addition of the enhancer to gel ointment: no significant enhancing effect

## O=C(O)CNC(=O)C(CS)Cc1ccccc1 (centres unmarked) [thiorphan]
enkephalinase
  CSF EKA: decreased
  plasma EKA: decreased
enkephalinase; plasma and CSF
  potency as enkephalinase inhibitor among the three drugs: most potent

## O=C(O)CCc1ccccc1 [hydrocinnamic acid]
Mice [20]
  alcohol preference: significantly reduced

## COc1ccc2c(c1)c(CC(=O)O)c(C)n2C(=O)c1ccc(Cl)cc1 [indomethacin]
Paw edema by carrageenin
  paw edema by carrageenin: markedly inhibited

## CCCCCCCCC1CCCCC1=O (centres unmarked) [2-n-octylcyclohexanone]
[11]
  percutaneous absorption of ketoprofen and indomethacin from gel ointments: Pronounced effects

## O=C(O)Cc1ccccc1Nc1c(Cl)cccc1Cl [diclofenac sodium]
Paw edema by carrageenin
  paw edema by carrageenin: markedly inhibited

## CCn1cc(C(=O)O)c(=O)c2ccc(Cc3ccccc3)nc21 [Amfoelic acid]
[13]
  release of dopamine formed from 14C-phenylalanine: net release

## CC[C@H](C)[C@H](N)C1=N[C@H](C(=O)N[C@@H](CC(C)C)C(=O)N[C@H](CCC(=O)O)C(=O)N[C@H](C(=O)N[C@H]2CCCCNC(=O)[C@H](CC(N)=O)NC(=O)[C@@H](CC(=O)O)NC(=O)[C@H](Cc3cnc[nH]3)NC(=O)[C@@H](Cc3ccccc3)NC(=O)[C@H]([C@@H](C)CC)NC(=O)[C@@H](CCCN)NC2=O)[C@@H](C)CC)CS1 [bacitracin] ({Ileψ(thiazoline)Cys}-L[dE]IK[dOrn]I[dF]H[dD]N; lactam 4-C)
Mice [3]
  analgesia: long-lasting, naloxone-reversible analgesia

## CC(C)(C)C1CCC(=O)CC1 [4-tert-butylcyclohexanone]
[11]
  percutaneous absorption of ketoprofen and indomethacin from gel ointments: significantly lower

## Fc1ccc([C@@H]2CCNC[C@H]2COc2ccc3c(c2)OCO3)cc1 [paroxetine]
CYP2D6
  steady-state plasma concentrations of (R)-methadone: increases

## C[C@H](NC(=O)[C@@H](CC(=O)NO)Cc1ccccc1)C(=O)O [kelatrophan]
[21]
  intracranial self-stimulation: reduced

## Cl.O=C1CC[C@@]2(O)[C@H]3Cc4ccc(O)c5c4[C@@]2(CCN3CC2CC2)[C@H]1O5 [Trexan®]
Methadone patients
  average number of days of compliance: 37 days
